Data on eleven compounds can be found in patent publication US12371429B2, “Antibiotic resistance-modifying tricyclic heteroaryl compounds and uses thereof” (Recreo Pharmaceuticals LLC, priority 2018, dated 2025).

Experiment [1] deals with Staphylococcus aureus (MRSA, NRS384). As to the kind of experiment: MIC determination, broth microdilution. The experiment is classed as cell-based. An excerpt: (§1) Bacterial strains representing pathogenic species of clinical concern, the so called ESKAPE pathogens, were selected for MIC studies using compounds A and B. The results are shown in Table A. These species are from the families or genera Enterococcus, Staphylococcus, Klebsiella, Acinetobacter, Pseudomonas, and Enterobacteriaceae. Specifically, Enterococcus faecium HM-204 and HM-460, Staphylococcus aureus strains NRS384 and COL, Klebsiella pneumoniae strains NR-48976 and NR-48977, Acinetobacter baumannii strains NR-17783 and NR-19299, Pseudomonas aeruginosa strain NR-48982 and Salmonella enterica strains NR-22067 and NR-22068 were purchased from BEI resources. Escherichia coli strain ATCC 25922, and the Staphylococcus aureus (S. aureus) strains ATCC 25923 (MSSA) and ATCC BAA-44 (MRSA) were purchased from the American Type Culture Collection (ATCC).
(§2) General Procedure for Minimal inhibitory concentration (MIC) determination. The minimal inhibitory concentrations (MICS) of antimicrobial compounds A, B, and C were determined by the broth microdilution method detailed in the Clinical and Laboratory Standards Institute handbook (Cockerill and Clinical and Laboratory Standards Institute, Methods for Dilution Antimicrobial Susceptibility Tests for Bacteria That Grow Aerobically). All antimicrobial compounds were purchased from Sigma-Aldrich. The growth media used for all MIC experiments, except those for Enterococcus faecium, was Mueller Hinton Broth (MHB) purchased from HIMEDIA through VWR (cat: 95039-356). For experiments using Enterococcus faecium, the growth and susceptibility medium was BD Bacto™ Brain Heart Infusion (BHI) Broth purchased from VWR (cat: 90003-040). USA Scientific CytoOne 96-well Clear Tissue Culture assay plates (cat: CC7682-7596) were used for all MIC and MRC experiments. MIC assay plates were prepared by diluting the antibiotic to be tested in a 2-fold series down the assay plate. A total of 8 concentrations of each compound were tested in triplicate. Compounds were prepared in 180 μL at 2× the intended final concentrations in MHB or BHI and 2% DMSO.
(§3) The bacterial inoculum was prepared by selecting 5-7 colonies from an agar plate to make a day culture in BHI of the bacterial species to be assayed. This was grown at 37° C. for 2-4 hours. After having reached the mid-logarithmic growth phase (OD600 0.15-0.4), the day culture was diluted in the appropriate assay medium (MHB or BHI) to OD600 0.002. 100 μL of this inoculum was added to each experimental well of the 96-well assay plate resulting in an additional two-fold dilution of the bacterial culture and an initial OD600 of 0.001 in the assay plate, a final volume of 200 μL and the intended compound concentrations in 1% DMSO. MIC assay plates were then incubated at 37° C. with shaking for 18 hours.
(§4) The MICs were determined as defined in the Clinical and Laboratory Standards Institute handbook. After overnight growth, Plates were read by eye and 600 nm absorbance read using a BioTek Epoch2 Microplate Spectrophotometer (BioTek).

The subject of experiment [2] is MRSA strain BAA-44. As to the kind of experiment: MIC determination, broth microdilution. The format is cell-based, Staphylococcus aureus.
From the text: as §1, §2, §3, §4
Background: In broth dilution the organism is exposed to a series of concentrations in liquid medium.

The subject of experiment [3] is MRSA strain BAA-44. The experiment is described as follows: Antibiotic MICs in the presence of Compound C. The experiment is classed as cell-based, Staphylococcus aureus. As to conditions: MRSA BAA-44; in the presence of 5 mg/L Compound C. On the procedure:
as §2, §3, §4
(§5) Determination of Antibiotic MICs in the Presence of Compound C against MRSA and MSSA. Methicillin-resistant S. aureus (MRSA) strain ATCC BAA-44 and the methicillin-sensitive S. aureus (MSSA) strain ATCC 25923 were used to determine the MIC values of various antimicrobial compounds in the presence of 5 μg/mL Compound C. […] The test antibiotics were then diluted into assay plates as described earlier. The final concentration of Compound C after inoculation with BAA-44 was 5 μg/mL. MIC values were determined by the methods described above.

Experiment [4] deals with MRSA strain NRS-384. The experiment is described as follows: Antibiotic MICs in the presence of Compound C. As to conditions: MRSA NRS-384; in the presence of 5 mg/L Compound C. The experiment is classed as cell-based, Staphylococcus aureus. How it is done: [The source words this procedure for another variant and reports this variant under the same test.] as §2, §3, §4, §5

The subject of experiment [5] is MRSA strain ATCC 700789. As to the kind of experiment: MIC determination, broth microdilution. The format is cell-based, Staphylococcus aureus. As to conditions: MRSA strain ATCC 700789 (Table C). On the procedure:
as §2, with “Compounds were prepared in 180 μL at 2× the intended final concentrations in MHB or BHI and 2% DMSO.” left out
as §4

Experiment [6] concerns MRSA strain ATCC-33592. The experiment is described as follows: MIC determination, broth microdilution. The experiment is classed as cell-based, Staphylococcus aureus. As to conditions: MRSA strain ATCC-33592 (Table C). How it is done: as §2, with “Compounds were prepared in 180 μL at 2× the intended final concentrations in MHB or BHI and 2% DMSO.” left out
as §4

Experiment [7] concerns MRSA strain ATCC 700789. As to the kind of experiment: Minimal re-sensitizing concentration (MRC) determination. The experiment is classed as cell-based, Staphylococcus aureus. How it is done: (§6) Minimal re-sensitizing concentration (MRC) determination. Antibiotic MIC breakpoint values where S. aureus is considered susceptible were determined from the CLSI handbook supplement. MHB was supplemented with the antibiotic at a concentration two-fold greater than the CLSI susceptible MIC value. Two-fold serial dilutions of Compound C were prepared in antibiotic supplemented media in 96-well microplates. These were inoculated with MRSA diluted to OD600 0.002 and incubated at 37° C. with shaking for 18 hours before results were interpreted. The concentration of […] in antibiotic supplemented media at which there was no observable growth was considered the minimum re-sensitizing concentration (MRC).

In experiment [8] the test system is MRSA strain ATCC-33592. The description is as above. The format is cell-based, Staphylococcus aureus. On the procedure:
as §6

Experiment [9] relates to MRSA strain BAA-44. The experiment is described as above. The experiment is classed as cell-based, Staphylococcus aureus. How it is done: as §6
Experiment [10] deals with MRSA strain NRS-384. Described as above. The experiment is classed as cell-based, Staphylococcus aureus. How it is done: as §6
Where [11] appears, read: Staphylococcus aureus, MRSA NRS-384, in the absence of Compound C, read-out: MIC mg/L (NRS-384).
Where [12] appears, read: Staphylococcus aureus, MRSA BAA-44, in the absence of Compound C, read-out: MIC mg/L (BAA-44).
Where [13] appears, read: medium supplemented with amox/clav.
[14] abbreviates: medium supplemented with cefazolin.

Values after ≈ are worked out from the molar mass of the structure shown. Where two headings read alike, the source gives them in different places. Some results are limits rather than exact numbers.

As to `Cc1nnc(SCC2=C(C(=O)O)N3C(=O)[C@@H](NC(=O)Cn4cnnn4)[C@H]3SC2)s1` [Cefazolin, reference compound], the figures for the MIC in experiment [1] (setting [11]) and in experiment [2] (setting [12]) were 64 mg/L (≈ 141 µM) and 128 mg/L (≈ 282 µM), respectively. In addition, the “MIC (BAA-44) (+5 mg/L Compound C)” value in [3] is less than 2 µg/mL. For the same compound, the “MIC (NRS-384) (+5 mg/L Compound C)” value in [4] was less than 2 µg/mL.

With `CCC[C@@H]1C[C@@H](C(=O)N[C@@H]([C@H]2O[C@H](SC)[C@H](O)[C@@H](O)[C@H]2O)[C@H](C)Cl)N(C)C1` [Clindamycin], the MIC in experiment [1] (setting [11]) is 0.125 mg/L (≈ 0.294 µM); in experiment [2] (setting [12]), greater than 4 mg/L. Further, in experiment [3], the “MIC (BAA-44) (+5 mg/L Compound C)” value is greater than 4 µg/mL. Besides, in experiment [4], the “MIC (NRS-384) (+5 mg/L Compound C)” value is less than 0.03125 µg/mL.

For `O=C(c1ccc(Cl)cc1)N1CCc2c([nH]c3ccc(Cl)cc23)C1` [Compound C], the MIC in experiment [1] (MRSA strain NRS-384 (Table C)) was greater than 64 mg/L; in [1] (setting [11]), greater than 100 mg/L; in experiment [2] (MRSA strain BAA-44 (Table C)), 64 mg/L (≈ 185 µM); in [2] (setting [12]), greater than 100 mg/L; in experiment [5] it was greater than 64 µg/mL; in experiment [6], 4 µg/mL (≈ 11.6 µM). The “MRC to Amox/clav” value worked out at 4 in experiment [7] (setting [13]), 2 in experiment [8] (setting [13]), 4 in experiment [9] (medium supplemented with amox/clav at two-fold greater than the CLSI susceptible MIC) and 2 in experiment [10] (setting [13]). For the same compound, the “MRC to Cefazolin” value in [7] (setting [14]) is 4; in experiment [8] (setting [14]), 2; in [9] (medium supplemented with cefazolin at two-fold greater than the CLSI susceptible MIC) it was 4; in [10] (setting [14]), 4.

Turning to `CC(=O)NC[C@H]1CN(c2ccc(N3CCOCC3)c(F)c2)C(=O)O1` [Linezolid], the figures for the MIC in [1] (setting [11]) and in experiment [2] (setting [12]) were 2 mg/L (≈ 5.93 µM) and 1 mg/L (≈ 2.96 µM), respectively. Moreover, the “MIC (BAA-44) (+5 mg/L Compound C)” value in experiment [3] stood at 0.5 µg/mL. Besides, in experiment [4], the “MIC (NRS-384) (+5 mg/L Compound C)” value stood at 1 µg/mL.

On to `C[C@@H](O)[C@H]1C(=O)N2C(C(=O)O)=C(S[C@@H]3CN[C@H](C(=O)N(C)C)C3)[C@H](C)[C@H]12` [Meropenem, reference compound], for which the values for the MIC in experiment [1] (setting [11]) and in experiment [2] (setting [12]) were 8 mg/L (≈ 20.9 µM) and 16 mg/L (≈ 41.7 µM), respectively. Moreover, the “MIC (BAA-44) (+5 mg/L Compound C)” value in experiment [3] was less than 0.25 µg/mL. The “MIC (NRS-384) (+5 mg/L Compound C)” value in experiment [4] was less than 0.25 µg/mL.

`COc1cccc(OC)c1C(=O)N[C@@H]1C(=O)N2[C@@H]1SC(C)(C)[C@@H]2C(=O)O` [Methicillin, reference compound]: the MIC was 256 mg/L (≈ 673 µM) in [1] (setting [11]) and greater than 256 mg/L in experiment [2] (setting [12]). For the same compound, the “MIC (BAA-44) (+5 mg/L Compound C)” value in experiment [3] was 4 µg/mL. Also, the “MIC (NRS-384) (+5 mg/L Compound C)” value in [4] was found to be 8 µg/mL.

Turning to `Cc1onc(-c2ccccc2)c1C(=O)N[C@@H]1C(=O)N2[C@@H]1SC(C)(C)[C@@H]2C(=O)O` [Oxacillin, reference compound], the MIC in [1] (setting [11]) and in experiment [2] (setting [12]) was 64 mg/L (≈ 159 µM) in each case. The “MIC (BAA-44) (+5 mg/L Compound C)” value in [3] is less than 2 µg/mL. In experiment [4], the “MIC (NRS-384) (+5 mg/L Compound C)” value was less than 2 µg/mL.

For the compound `CO[C@H]1/C=C/O[C@@]2(C)Oc3c(C)c(O)c4c(O)c(c(/C=N/N5CCN(C)CC5)c(O)c4c3C2=O)NC(=O)/C(C)=C\C=C\[C@H](C)[C@H](O)[C@@H](C)[C@@H](O)[C@@H](C)[C@H](OC(C)=O)[C@@H]1C` [Rifampicin], the MIC in experiment [1] (setting [11]) is less than 0.0312 mg/L; in experiment [2] (setting [12]) it was 1 mg/L (≈ 1.22 µM). Also, the “MIC (NRS-384) (+5 mg/L Compound C)” value in experiment [4] was less than 0.03125 µg/mL.

Turning to `[H]/N=C(/N)N[C@H]1[C@H](O)[C@@H](O)[C@H](O[C@@H]2O[C@@H](C)[C@](O)(C=O)[C@H]2O[C@@H]2O[C@@H](CO)[C@H](O)[C@@H](O)[C@@H]2NC)[C@@H](N/C(N)=N\[H])[C@@H]1O` [Streptomycin], the MIC in experiment [1] (setting [11]) was 8 mg/L (≈ 13.8 µM); in [2] (setting [12]), greater than 32 mg/L. The “MIC (BAA-44) (+5 mg/L Compound C)” value in experiment [3] is greater than 32 µg/mL. The “MIC (NRS-384) (+5 mg/L Compound C)” value in experiment [4] came to 1 µg/mL.

Consider `CN(C)[C@@H]1C(O)=C(C(N)=O)C(=O)[C@@]2(O)C(O)=C3C(=O)c4c(O)cccc4[C@@](C)(O)[C@H]3C[C@@H]12` [Tetracycline], for which the MIC was determined as 8 mg/L (≈ 18 µM) in experiment [1] (setting [11]) and 16 mg/L (≈ 36 µM) in [2] (setting [12]). Moreover, the “MIC (BAA-44) (+5 mg/L Compound C)” value in experiment [3] turned out to be 4 µg/mL. Also, in [4], the “MIC (NRS-384) (+5 mg/L Compound C)” value is 4 µg/mL.

For `CN[C@H](CC(C)C)C(=O)N[C@H]1C(=O)N[C@@H](CC(N)=O)C(=O)N[C@H]2C(=O)N[C@H]3C(=O)N[C@H](C(=O)N[C@H](C(=O)O)c4cc(O)cc(O)c4-c4cc3ccc4O)[C@H](O)c3ccc(c(Cl)c3)Oc3cc2cc(c3O[C@@H]2O[C@H](CO)[C@@H](O)[C@H](O)[C@H]2O[C@H]2C[C@](C)(N)[C@H](O)[C@H](C)O2)Oc2ccc(cc2Cl)[C@H]1O` [Vancomycin], the MIC in experiment [1] (Staphylococcus aureus, read-out: MIC mg/L (NRS-384)) amounted to 1 mg/L (≈ 0.69 µM); in experiment [2] (Staphylococcus aureus, read-out: MIC mg/L (BAA-44)), 1 mg/L (≈ 0.69 µM). Besides, the “MIC (BAA-44) (+5 mg/L Compound C)” value in experiment [3] is 0.5 µg/mL. Further, the “MIC (NRS-384) (+5 mg/L Compound C)” value in [4] was found to be 0.5 µg/mL.
